Measured values published in PMC5937082, “Prediction of Lipophilicity and Pharmacokinetics of Chloroacetamides by Chemometric Approach” (Iranian Journal of Pharmaceutical Research : IJPR, 2018).

Experiment: Lipophilicity by reversed-phase thin-layer chromatography (RPTLC, RP-18W/UV254 plates)
Format: physicochemical
Conditions: φ = 0.34 - 0.56 v/v, room temperature
Procedure: During chromatographic examinations commercial plates (RP-18W/UV254 Macherey-Nagel GmBH and Co., Duren, Germany) were used as the stationary phase. Mixtures of LC grade organic modifiers (J. T. Baker, Deventer, the Netherlands) and filtered bi-distilled water were used as the mobile phase.
The tested chloroacetamides were dissolved in ethanol (analytical purity) in concentration 2 mg mL^–1. About 0.2 µL of freshly prepared solution of each compound was spotted on the plates which were then developed by the ascending technique in the unsaturated chambers at room temperature with an aqueous solutions of two organic modifiers: methanol (φ = 0.34 - 0.56, v/v) and acetone (φ = 0.34 - 0.56, v/v). The visualization of the tested compounds on the dried developed plates was performed under a UV light at λ= 254 nm. In both applied modifiers for each composition three chromatograms were developed and then the average Rf values were calculated.
From the experimentally obtained Rf values, for each composition of the mobile phase, RM values were calculated according to the Equation: […]
The relationships between the retention values, RM, of the compound and the volume fraction of the organic modifier in the mobile phase, φ, were given by:
Where intercept, RM^0, represents the chromatographic retention constant, while the slope of the linear plot, m, which is the change in RM is caused by the unit of the organic modifier concentration in the mobile phase and depends on the properties of the solute. Commonly, it is related to the specific hydrophobic surface area of the compound ([39]). Chromatographic parameter m can be applied as alternative measure of lipophilicity, also ([40], [41]).Values of these parameters obtained for chloroacetamides in the used modifiers are given in Table 4.

R M ^0 (chromatographic retention constant, intercept) (acetone-water mobile phase)	m (slope of RM vs φ) (acetone-water mobile phase)	R M ^0 (chromatographic retention constant, intercept) (methanol-water mobile phase)	m (slope of RM vs φ) (methanol-water mobile phase)	SMILES
1.963 (±0.143)	-3.375 (±0.323)	2.124 (±0.122)	-3.282 (±0.266)	O=C(CCl)Nc1ccc(I)cc1 [Compound 4I]
1.130 (±0.115)	-2.431 (±0.258)	1.247 (±0.122)	-2.478 (±0.265)	COc1ccc(NC(=O)CCl)cc1 [Compound 4OCH3]
0.763 (±0.030)	-1.865 (±0.068)	1.577 (±0.069)	-3.032 (±0.154)	O=C(CCl)Nc1ccc(O)cc1 [Compound 4OH]
1.106 (±0.132)	-2.225 (±0.285)	1.171 (±0.123)	-2.309 (±0.268)	O=C(CCl)Nc1ccccc1 [H]

Second part, the molecule before the results:

SMILES	R M ^0 (chromatographic retention constant, intercept) (acetone-water mobile phase)	m (slope of RM vs φ) (acetone-water mobile phase)	R M ^0 (chromatographic retention constant, intercept) (methanol-water mobile phase)	m (slope of RM vs φ) (methanol-water mobile phase)
O=C(CCl)Nc1cccc(Br)c1 [Compound 3Br]	1.780 (±0.105)	-3.105 (±0.238)	1.958 (±0.115)	-3.151 (±0.251)
N#Cc1cccc(NC(=O)CCl)c1 [Compound 3CN]	1.186 (±0.101)	-2.278 (±0.218)	1.362 (±0.082)	-2.726 (±0.182)
O=C(CCl)Nc1ccc(Br)cc1 [Compound 4Br]	1.849 (±0.087)	-3.175 (±0.195)	1.951 (±0.100)	-3.137 (±0.218)
Cc1ccc(NC(=O)CCl)cc1 [Compound 4CH3]	1.370 (±0.097)	-2.583 (±0.220)	1.542 (±0.067)	-2.673 (±0.146)
N#Cc1ccc(NC(=O)CCl)cc1 [Compound 4CN]	1.074 (±0.117)	-2.033 (±0.263)	1.382 (±0.039)	-2.749 (±0.086)
CC(=O)c1ccc(NC(=O)CCl)cc1 [Compound 4COCH3]	1.118 (±0.077)	-2.396 (±0.173)	1.275 (±0.121)	-2.549 (±0.263)
O=C(CCl)Nc1ccc(Cl)cc1 [Compound 4Cl]	1.636 (±0.139)	-2.945 (±0.313)	1.788 (±0.140)	-2.944 (±0.306)
O=C(CCl)Nc1ccc(F)cc1 [Compound 4F]	1.341 (±0.042)	-2.440 (±0.095)	1.354 (±0.088)	-2.486 (±0.192)
